From US20140275257A1, “N-ACETYL CYSTEINE COMPOSITIONS IN THE TREATMENT OF SYSTEMIC LUPUS ERYTHEMATOSUS” (Foundation for the State University of New York, priority 2013, published 2014)

Legend:
[1] = tested on: DN T cells; assay: T-cell subset analysis by flow cytometry (DN T cells); type: in vivo, human; conditions: after 3 months; baseline 6.2±0.5%; p=0.043
Method: Unstimulated cells and cells stimulated with CD3/CD28 for 16 h were examined and cell death pathway selection in T cells was measured by concurrent staining with annexin V-Alexa 647 and propidium iodide (PrI) as well as cell type-specific antigens. T-cell subsets were analyzed by staining with antibodies to CD4, CD8, and CD25. B cells were identified by CD 19 staining

[2] = tested on: mTOR; assay: CD3/CD28 stimulation-induced mTOR activity in normal PBL pretreated with NAC in vitro; type: cell-based, human; conditions: pretreatment by NAC in vitro (data not shown)
Excerpt: Δψm is subject to regulation by an oxidation-reduction equilibrium of ROI, pyridine nucleotides (NADH/NAD+NADPH/NADP) and GSH. (Fernandez, D. and Perl, A. “Metabolic control of T cell activation and death in SLE,” Autoimmun. Rev., 8: 184-189 (2009)). Without being bound by theory, it is believed that NAC can modulate mitochondrial hyperpolarization (MHP), directly, via neutralizing ROI or, indirectly, via sparing NADPH and promoting de novo GSH production. […] NAC-induced MHP occurred with a marked increase in NO production, which is required for mitochondrial biogenesis. (Nagy, G. et al., “Nitric Oxide-Dependent Mitochondrial Biogenesis Generates Ca^2+ Signaling Profile of Lupus T Cells,” J. Immunol., 173: 3676-3683 (2004)). In turn, NO production depends on the availability of NADPH. Without being bound by theory, it is believed that increased NO production can result from sparing of NADPH by NAC. (Fernandez, D. and Perl, A. “Metabolic control of T cell activation and death in SLE,” Autoimmun. Rev., 8: 184-189 (2009)). Without being bound by theory, NAC acts by blocking mTOR, which is a sensor of Δψm and oxidative stress in lupus T cells. (Fernandez, D. R. et al., “Activation of mTOR controls the loss of TCRζ □ in lupus T cells through HRES-1/Rab4-regulated lysosomal degradation,” J. Immunol., 182: 2063-2073 (2009)). […]

[3] = tested on: SLE patients; assay: ADHD Self-Report Scale (ASRS) in SLE patients treated with NAC; type: in vivo, human
Method: The clinical trial design, eligibility criteria, randomization, blinding, monitoring of safety, tolerance and efficacy on NAC in patients with SLE was as described in Example 1, approved by the Food and Drug Administration (IND No: 101,320; clinicaltrials.gov identifier: NCT00775476). As an addendum to the Example 1 study, ASRS was evaluated as an exploratory outcome in 24 SLE patients randomized to receive orally either placebo or NAC in one of two treatment arms: 1,200 mg or 2,400 mg twice daily for three months. 12 patients were enrolled per dosing group, 9 received NAC while 3 received placebo. Due to missing data, 6 patients enrolled in the placebo arm and 8 patients enrolled into each of the two NAC treatment arms could be evaluated.
The ASRS is an 18-item scale that is used to assess the current status of the 18 DSM-IV symptoms of ADHD in adults. (Kessler, R. C. et al., “The World Health Organization Adult ADHD Self-Report Scale (ASRS): a short screening scale for use in the general population,” Psychol. Med., 35(2): 245-256 (2005)). Symptoms are rated on a frequency basis: 0=never, 1=rarely, 2=sometimes, 3=often, and 4=very often. Nine items assess inattention and nine assess hyperactivity-impulsivity. The 9 inattentive symptoms are summed to create the ASRS A subscale; the 9 hyperactive-impulsive symptoms are summed to compute the ASRS B subscale. These two scales are summed to compute the total score. For all scales, higher scores indicate more symptoms. The scale has high concurrent validity with a rater-administered ADHD symptom scale. (Adler, L. A. et al., “Validity of Pilot Adult ADHD Self-Report Scale (ASRS) to Rate Adult ADHD Symptoms,” Ann Clin. Psychiatry 18(3): 145-148 (2006)). As described in Example 1, SLE disease activity was assessed by using the British Isles Lupus Assessment Group (BILAG) (Isenberg, D. A. et al., “BILAG 2004. Development and initial validation of an updated version of the British Isles Lupus Assessment Group's disease activity index for patients with systemic lupus erythematosus,” Rheumatology, 44(7): 902-906 (2005)) and Systemic Lupus Erythematosus Disease Activity Index (SLEDAI) (Hochberg, M. C., “Updating the American College of Rheumatology revised criteria for the classification of systemic lupus erythematosus,” Arth. Rheum., 40(9): 1725 (1997)). Fatigue was estimated using the Fatigue Assessment Scale (FAS) (Michielsen, H. J. et al., “Psychometric qualities of a brief self-rated fatigue measure: The Fatigue Assessment Scale,” J. Psychosom. Res., 54(4): 345-352 (2003)).
Overall clinical effectiveness of NAC relative to placebo was analyzed with multilevel modeling as implemented in the STATA routine XTMIXED (from StataCorp, College Station, Tex.), with the three nested levels being drug group, subject within drug group and study visit within subject. All models included fixed effects for drug group, study visit and the drug group by study visit interaction along with random intercepts at each design level. […] Two-tailed paired t-test was used to assess the effects of placebo and of each and all NAC doses on clinical indices recorded on visits 2-5 relative to visit 1; p<0.05 was considered significant. Patients and controls were compared with two-tailed unpaired t-test. Correlations and t-test were performed with Prism (GraphPad, San Diego, Calif.).

[4] = tested on: idiopathic pulmonary fibrosis patients; conditions: "high-dose" oral NAC (1.8 g/day); Demedts et al. (2005); cited from earlier work
[5] = NAC Dose 3, end of 3-month treatment

For CC(=O)N[C@@H](CS)C(=O)O [NAC, N-acetyl-L-cysteine], the “DN T-cell frequency” value [1] was 5.3±0.5%, the “CD3/CD28 stimulation-induced mTOR activity” value [2] was “blocking” and the “cognitive/inattentive ASRS A scores” value ([3]; NAC Dose 2 (2.4 g/day), z=−3.31, p=0.001) was “reduced”. The “hyperactivity/impulsive components of ASRS scores (ASRS B scores)” value ([3]; NAC Dose 2 and 3, alone or combined (data not shown)) was “not affected”, the “ASRS Total scores” value ([3]; NAC Dose 3 (4.8 g/day), after 2 and 3 months of treatment) was “diminished” and the “cognitive/inattentive ASRS A scores” value ([3]; NAC Dose 3 (4.8 g/day), z=−4.04, p<0.0001) was “reduced”. The “standardized mean difference effect size (Cohen's D), ASRS A scores” value [3, 5] was 0.71, the “standardized mean difference effect size (Cohen's D), ASRS B scores” value [3, 5] was 0.44 and the “standardized mean difference effect size (Cohen's D), ASRS Total scores” value [3, 5] was 0.72. The “ASRS Total scores” value ([3]; NAC Doses 2 and 3 combined, after 3 months) was “reduced”, the “reduction in ASRS Total scores relative to placebo (multilevel modeling)” value ([3]; NAC Doses 2 and 3 combined, XTMIXED z=−2.09, p=0.037) was “greater” and the “cognitive/inattentive ASRS A scores” value ([3]; NAC Doses 2 and 3 combined, z=−3.41, p=0.001) was “reduced”. The “disease severity in idiopathic pulmonary fibrosis” value [4] was “diminished disease severity”.
